Positions count from the first letter of the chain named.
How the values were obtained:
[1] = target: T1, mtAT2R (Rattus norvegicus, UniProt P35351); experiment: Mitochondrial respiration, isolated rat heart mitochondria (Seahorse XF96); format: biochemical
T1 construct: we examined effects on respiration in rat heart mitochondria; from tissue; host or cells: isolated rat heart or liver mitochondria
T1 sequence (P35351 1-363): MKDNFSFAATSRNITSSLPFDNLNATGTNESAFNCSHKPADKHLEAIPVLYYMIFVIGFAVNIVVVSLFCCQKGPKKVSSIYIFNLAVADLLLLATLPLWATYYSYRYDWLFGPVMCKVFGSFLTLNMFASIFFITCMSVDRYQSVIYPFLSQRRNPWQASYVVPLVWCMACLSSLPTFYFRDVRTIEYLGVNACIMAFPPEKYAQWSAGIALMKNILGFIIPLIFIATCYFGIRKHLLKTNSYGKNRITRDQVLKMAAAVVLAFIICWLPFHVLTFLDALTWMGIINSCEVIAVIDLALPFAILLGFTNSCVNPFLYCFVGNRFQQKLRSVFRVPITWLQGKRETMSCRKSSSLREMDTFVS
Method: Mitochondrial Respiration. For monitoring respiration, isolated mitochondria from rat heart or liver (10 μg of protein per well) were aliquoted into 96 wells of a polyethyleneimine-coated XF96 cell culture microplate (Seahorse Bioscience). The plate was centrifuged at 3,000×g for 10 minutes at 4° C. in an A-4-62 rotor, which control experiments determined caused an attachment of isolated mitochondria that was sufficiently robust to withstand the mixing protocols of the machine. Mitochondria were placed in 300 μL per well of mitochondrial buffer [20 mM Hepes, 137 mM KCl, 2.5 mM MgCl2, 2 mM K2HPO4, 0.5 mM EGTA, and 0.2% (wt/vol) BSA (pH 7.3) at 37° C.]J. Plates were used immediately. The cell culture microplate was incubated and loaded into the Seahorse XF96 extracellular flux analyzer following the manufacturer's instructions. All experiments were performed at 37° C.
Oxygen consumption rate data points refer to the mean rates during the measurement cycles, which consisted of a mixing time of 30 s and a wait time of 2 minutes followed by a data acquisition period of 10 minutes (50 data points). […] The oxygen consumption rates were determined by using a compartment model-based deconvolution algorithm, which compensated for oxygen diffusion phenomena occurring around the entrapped volume and for the response time of the probe. […]

[2] = target: T2, mtAT2R (Mus musculus, UniProt P35374); experiment: NO production in isolated kidney mitochondria (NO fluorescent probe); format: biochemical; conditions: PD-123319 1 μM; P<0.01
T2 construct: from tissue; host or cells: isolated kidney mitochondria
T2 sequence (P35374 1-363): T1 sequence (P35351 1-363) with L18R, A40S, V88L, S352G
Method: Measurement of Nitric Oxide (NO) Production in Isolated Mitochondria. Kidney mitochondria were isolated by homogenization and differential centrifugation in a medium containing […] of 1 M sucrose, 12 mL of 1 M mannitol, 2.5 mL of 1 M KCL, 1 M Tris-HCL, 0.5 mL of 1 M EDTA, 1.5 mL of 0.1 M EGTA, and 0.1% BSA (pH 7.4). Mitochondria were suspended in incubation solution. Total mitochondrial protein was determined by a Lowry Protein Assay Kit (Sigma-Aldrich). […] The fluorescent products were measured by using a reader equipped with Cyanine 5 (650/670 nm).
AT2Rs Modulate Mitochondrial NO Production. To determine whether mtAT2R activation might modulate mitochondrial NO production in a manner analogous to the actions of non-mtAT2Rs on other NO isoforms, the direct effects of AT2R agonists and antagonists were determined on isolated kidney mitochondria. […] Fluorescence signal was measured by using a multimode microplate reader equipped with Cyanine 5 (650/670 nm). Treatment of mitochondria with CGP421140 caused a concentration-dependent increase in mitochondrial NO production (FIG. 6A); specifically, 10 nM was sufficient to stimulate NO production [from 0.52±0.0009 fluorescence arbitrary units (AU) at baseline control to 0.6+0.01 AU, P<0.001]. […]

[3] = tested on: mtAT1R; experiment: Immunoelectron microscopy of mtAT1R in kidney tubular cells of aged mice on chronic losartan; format: in vivo, C57BL/6 mice; conditions: 70-wk-old mice, losartan 40-60 mg/kg per day for 20 wk; aged untreated 12.7+5.8, young 2.0+2.2
Method: (§1) Immunolocalization of AT1R, AT2R, and Ang. Immunogold electron microscopy was performed as described (Am. J. Physiol. Endocrinot. Metab., 286:E1011-E1022 (2004)). In brief, mouse tissues were fixed in 4% formaldehyde in 0.1 M sodium cacodylate supplemented with 3% sucrose (wt/vol) and 3 mM CaCl2 and cryoprotected in 2.3 M sucrose overnight in polyvinylpyrrolidone (Sigma). Ultrathin sections were cut on a Leica Ultracut UCT microtome, and sections were placed on Formvar-coated nickel 200-mesh hexagonal grids. The sections were incubated in primary antibody against rabbit anti-AT2R, goat anti-Ang, or goat anti-AT1R antibody overnight at 4° C. at a concentration of 10 μg/mL. […] Primary antibodies were detected with either 6-nm colloidal gold donkey anti-goat or 12-nm colloidal goat anti-rabbit (Jackson ImmunoResearch) diluted 1:20 in PBS for 1 hour. Final contrasting of the sections was done by incubating them in 2% methyl cellulose (Sigma) and 0.3% uranyl acetate (Ted Pella) for 10 min at 4° C. All sections were viewed with a Philips CM 120 TEM transmission electron microscope at an accelerating voltage of 80 kV. Images were taken with a Gatan Orius SC 1000 digital camera. Photographs for representative sections were taken.

[4] = tested on: wounds; experiment: Wound healing in db/db mice, losartan started at different phases; format: in vivo, BKS.Cg-m+/+Lepr^db/J(db/db) mice; conditions: 8 week old db/db mice; preliminary data
Text: In order to provide additional rationale for using losartan ointment at day 7 of wound treatment, preliminary data was developed on the effects of losartan on all phases of wound healing in 8 week old BKS.Cg-m+/+Lepr^db/J(db/db) mice (FIGS. 11, 12).

[5] = Blood pressure and general health of mice on chronic losartan
Method: Human and Animal Groups. Mitochondria were studied in adult human monocytes (20-30 y old), adult human skeletal muscle tissue, adult rats (24 wk old), adult (20 wk old) and aged (70 wk old) mice, and a human cell line. Adult mice at 50 wk of age were treated with the AT1R blocker losartan at doses of 40-60 mg/kg per day for 20 wk. All experiments were approved by the Johns Hopkins Animal Care and use Committee and the Johns Hopkins Institutional Review Board. Weight, blood urea nitrogen, creatinine, and albumin were measured in adult (20 wk) and aged (70 wk) mice and in aged mice on losartan treatment. […] We visually inspected each animal carcass after the dissection for any abnormalities.

[6] = tested on: mtAT2R; experiment: Immunoelectron microscopy of mtAT2R in kidney tubular cells of aged mice on chronic losartan; format: in vivo, C57BL/6 mice; conditions: 70-wk-old mice, losartan 40-60 mg/kg per day for 20 wk; aged untreated 10.2+2.2, young 25.5+6.2
Method: as §1

[7] = tested on: 8-mm excisional wounds; experiment: Full thickness excisional wound healing, daily topical cream; format: in vivo, mice; conditions: after three days of treatment, FIG. 8
Method: For wound-healing experiments, animal procedures were approved by the Johns Hopkins University Animal Care and Use Committee. During the experiments the animals were-housed one per cage, maintained under controlled environmental conditions (12 hours light to dark cycle, temperature approximately 23° C.), and provided with standard laboratory food and water ad libitum. 16 male mice with average weight of 30 g were divided into two groups. Mice were anesthetized with ketamine hydrochloride (100 mg/kg) and xylazine (10 mg/kg), and the dorsum was shaved and then treated with a depilatory (Nair cream, Church & Dwight Co., Princeton, N.J.). Two symmetrical full thickness excisional wounds created on their back using an 8-mm punch biopsy instrument. No dressing was used after burn. The animals were resuscitated according to the Parkland formula (4 mL/kg/percent body area) by intraperitoneal injection of saline within 1 hour after wound. Animals were divided into two groups; A and B. One group received daily application of an angiotensin receptor blocker cream to both wounds per animal and the other received vehicle. Researchers were blinded to the identity of the cream applied. We used digital photography and computerized planimetry to assess the rate of wound healing in either group.

In the case of `COC(=O)[C@@H](N)CCCNC(=N)N[N+](=O)[O-]` [L-NAME, L-N^G-nitroarginine methyl ester], the “CGP421140-inhibited state 3 respiration reversed by L-NAME” value ([1]; 100 nM CGP421140 + L-NAME 1 μM, P<0.05) is reported as 67.4±4.3 pmol/min per μg.

With `Cc1cc(Cn2cnc3c2C[C@@H](C(=O)O)N(C(=O)C(c2ccccc2)c2ccccc2)C3)ccc1N(C)C` [PD-123319] the “CGP421140-inhibited state 3 respiration restored by PD-123319” value ([1]; 100 nM CGP421140 + PD-123319 1 μM, P<0.01) was 66.83±2.1 pmol/min per μg and the “CGP421140-stimulated NO production after pretreatment with PD-123319” value [2] was 0.55±0.006 AU.

In the case of `CCCCc1nc(Cl)c(CO)n1Cc1ccc(-c2ccccc2-c2nn[nH]n2)cc1` [losartan], the mtAT1R expression [3] is reported as 11.0+2.1 gold-labeled AT1R per mitochondrion, the “healing and elasticity, treatment starting at day 7 compared to day 1” value [4] is reported as “accelerated healing and improved elasticity” and the “evidence of malignancy on carcass inspection” value ([5]; 10 animals per group) is reported as “did not observe any evidence of malignancy”. For the same compound, the “weight, blood urea nitrogen, creatinine, and albumin” value ([5]; adult, aged and aged mice on losartan, data not shown) was “no significant difference”, the “decrease in blood pressure” value ([5]; losartan 40-60 mg/kg per day for 20 wk) was 10-15% and the mtAT2R expression [6] was 39.0+2.6 gold-labeled AT2R per mitochondrion. For the same compound, the “wound granulation versus vehicle” value [7] was “more granulation”.
